# Data as given in ChEMBL document CHEMBL6153065, “Heterologous Expression and Characterization of Estercin A, a Class II Lanthipeptide Derived from Clostridium estertheticum CF016, with Antimicrobial Activity against Clinically Relevant Pathogens” (2025).
# The source made the active and inactive calls. No cut-off for these calls is given here. *1 amine or outer side, *2 acyl side, *3 side chain or, on linkers, in order; H or OH if unused. Where a SMILES comes first, the peptide text is derived from it. Bridges are numbered along the chain shown (N, C = ends). [ ]: non-standard residue; d: D form. X1 = O=C([C@@H](N[*:1])[C@H](O)C[*:3])[*:2]; Abu(4-yl) = O=C([C@H](CC[*:3])N[*:1])[*:2]
# Key:
# Lactococcus lactis [1] = experiment: Antibacterial activity against Lactococcus lactis MG1363 assessed as inhibition of bacterial growth at 1 mg/ml incubated for 16 hrs by agar well diffusion assay relative to control; type: functional; parameters: scale not given: the % may be the effect or the level left
# Bacillus cereus [2] = experiment: Antibacterial activity against Bacillus cereus ATCC14579 assessed as inhibition of bacterial growth at 1 mg/ml incubated for 16 hrs by agar well diffusion assay relative to control; type: functional; parameters: scale not given: the % may be the effect or the level left
# Staphylococcus aureus [3] = experiment: Antibacterial activity against Staphylococcus aureus LMG15975 assessed as inhibition of bacterial growth at 1 mg/ml incubated for 16 hrs by agar well diffusion assay relative to control; type: functional; parameters: scale not given: the % may be the effect or the level left
# Clostridium perfringens = experiment: Antibacterial activity against Clostridium perfringens CECT376 assessed as bacterial growth inhibition incubated for 18 hrs by Mueller-Hinton broth based doubling dilution method; type: functional
# Bacillus cereus [4] = experiment: Antibacterial activity against Bacillus cereus ATCC14579 assessed as bacterial growth inhibition incubated for 18 hrs by Mueller-Hinton broth based doubling dilution method; type: functional
# Staphylococcus aureus [5] = experiment: Antibacterial activity against methicillin-resistant Staphylococcus aureus LMG15975 assessed as bacterial growth inhibition incubated for 18 hrs by Mueller-Hinton broth based doubling dilution method; type: functional
# Enterococcus faecium = experiment: Antibacterial activity against vancomycin-resistant Enterococcus faecium LMG16003 assessed as bacterial growth inhibition incubated for 18 hrs by Mueller-Hinton broth based doubling dilution method; type: functional
# Lactococcus lactis [6] = experiment: Antibacterial activity against Lactococcus lactis MG1363 assessed as bacterial growth inhibition incubated for 18 hrs by Mueller-Hinton broth based doubling dilution method; type: functional
# Cell membrane = experiment: Induction of membrane permeabilization in Lactococcus lactis MG1363 assessed as pore forming ability by measuring increase in red fluorescence at 2 times MIC measured after 15 mins by SYTO-9 Green dye/red PI staining based fluorescence microscopy; type: subcellular
# Lactococcus lactis [7] = experiment: Antibacterial activity against Lactococcus lactis MG1363 at 1 mg/ml incubated at pH 4 for 4 hrs; type: functional, organism-based
# Clostridium botulinum = experiment: Antibacterial activity against Clostridium botulinum CECT551 assessed as bacterial growth inhibition incubated for 18 hrs by Mueller-Hinton broth based doubling dilution method; type: functional
# Lactococcus lactis [8] = experiment: Antibacterial activity against Lactococcus lactis MG1363 assessed as bacterial death at 10 times of MIC by time killing assay; type: functional, organism-based
# Enterococcus faecalis = experiment: Antibacterial activity against vancomycin-resistant Enterococcus faecalis LMG16216 assessed as bacterial growth inhibition incubated for 18 hrs by Mueller-Hinton broth based doubling dilution method; type: functional
# Lactococcus lactis [9] = experiment: Antibacterial activity against Lactococcus lactis MG1363 at 1 mg/ml incubated at pH 7 for 4 hrs; type: functional, organism-based
# Clostridium tetani = experiment: Antibacterial activity against Clostridium tetani CECT4629 assessed as bacterial growth inhibition incubated for 18 hrs by Mueller-Hinton broth based doubling dilution method; type: functional
# Lactococcus lactis [10] = experiment: Antibacterial activity against Lactococcus lactis MG1363 at 1 mg/ml incubated at pH 10 for 4 hrs; type: functional, organism-based
# Listeria monocytogenes = experiment: Antibacterial activity against Listeria monocytogenes LMG10470 assessed as bacterial growth inhibition incubated for 18 hrs by Mueller-Hinton broth based doubling dilution method; type: functional
# Staphylococcus aureus [11] = experiment: Antibacterial activity against Staphylococcus aureus LMG10147 assessed as bacterial growth inhibition incubated for 18 hrs by Mueller-Hinton broth based doubling dilution method; type: functional
# Lactococcus lactis [12] = experiment: Antibacterial activity against Lactococcus lactis MG1363 at 1 mg/ml incubated at pH 2 for 4 hrs; type: functional, organism-based
# Lactococcus lactis [13] = experiment: Antibacterial activity against Lactococcus lactis MG1363 assessed as inhibition of bacterial growth by measuring increased activity more than estercin A (100%) at 1 mg/ml incubated for 16 hrs by agar well diffusion assay; type: functional; parameters: scale not given: the % may be the effect or the level left
# Bacillus cereus [14] = experiment: Antibacterial activity against Bacillus cereus ATCC14579 assessed as inhibition of bacterial growth by measuring increased activity more than estercin A (100%) at 1 mg/ml incubated for 16 hrs by agar well diffusion assay; type: functional; parameters: scale not given: the % may be the effect or the level left
# Lactococcus lactis [15] = experiment: Binding affinity to Lactococcus lactis MG1363 lipid II at 8 ug by Spot-on-lawn assay; conditions: dose 8.0 µg
# Lactococcus lactis [16] = experiment: Antibacterial activity against Lactococcus lactis MG1363 at 1 mg/ml incubated under 95 degreeC for 4 hrs; type: functional, organism-based
# Lactococcus lactis [17] = experiment: Antibacterial activity against Lactococcus lactis MG1363 at 1 mg/ml incubated under 55 degreeC for 4 hrs; type: functional, organism-based
# Lactococcus lactis [18] = experiment: Antibacterial activity against Lactococcus lactis MG1363 at 1 mg/ml incubated under 22 degreeC for 4 hrs; type: functional, organism-based
# Lactococcus lactis [19] = experiment: Antibacterial activity against Lactococcus lactis MG1363 at 1 mg/ml incubated for 2 hrs in presence of trypsin by agar plate method; type: functional, organism-based
compound,measurement,setting,value
C=C1NC(=O)[C@H](C(C)C)NC(=O)[C@@H]2CSC[C@@H](C(=O)N[C@@H](CCCCN)C(=O)O)NC(=O)[C@H](CSC[C@@H]3NC(=O)[C@H](Cc4ccccc4)NC(=O)[C@@H](NC(=O)[C@H](CC(N)=O)NC(=O)[C@@H](NC(=O)[C@@H](NC(=O)CNC(=O)CNC(=O)CN)C(C)C)[C@@H](C)CC)CSC[C@H](NC(=O)[C@H](CCC(=O)O)NC(=O)[C@H](Cc4c[nH]cn4)NC3=O)C(=O)N[C@@H](Cc3ccc(O)cc3)C(=O)N[C@@H](Cc3ccc(O)cc3)C(=O)N[C@@H](CC(N)=O)C(=O)N2)NC(=O)CNC(=O)CNC(=O)[C@H](Cc2c[nH]c3ccccc23)NC(=O)[C@H](CO)NC(=O)[C@H](C)NC(=O)[C@@H]2CCCN2C1=O,Activity,Lactococcus lactis [1],100%
same,Activity,Bacillus cereus [2],100%
same,Activity,Staphylococcus aureus [3],100%
"CC[C@H](C)[C@H](NC(=O)[C@@H](NC(=O)[C@H](CCCCN)NC(=O)[C@H](CC(C)C)NC(=O)[C@@H](NC(=O)CNC(=O)[C@H](CC(N)=O)NC(=O)CN)C(C)C)[C@@H](C)O)C(=O)N[C@H]1CCSC[C@@H]2NC(=O)[C@@H](NC(=O)[C@H](Cc3ccccc3)NC(=O)[C@H](CC(C)C)NC(=O)[C@H](Cc3ccccc3)NC(=O)[C@H](CCC(N)=O)NC(=O)[C@H](Cc3c[nH]c4ccccc34)NC(=O)[C@H]([C@@H](C)O)NC(=O)[C@H](CC(N)=O)NC(=O)[C@H](CCSC)NC(=O)[C@H](CC(N)=O)NC(=O)[C@H](CS)NC(=O)[C@H](CCC(=O)O)NC(=O)[C@H](Cc3c[nH]cn3)NC1=O)[C@H](O)CSC[C@@H](C(=O)O)NC2=O (H-GNGVLKTI[Abu(4-yl)]HECNMNTWQFLF[X1]CC-OH; thioether 9-23, 22-24)",MIC,Clostridium perfringens,75 µg/mL
C=C1NC(=O)[C@H](C(C)C)NC(=O)[C@@H]2CSC[C@@H](C(=O)N[C@@H](CCCCN)C(=O)O)NC(=O)[C@H](CSC[C@H]3NC(=O)[C@H](Cc4ccccc4)NC(=O)[C@@H](NC(=O)[C@@H](NC(=O)[C@@H](NC(=O)[C@@H](NC(=O)CNC(=O)CNC(=O)CN)C(C)C)[C@@H](C)CC)[C@@H](C)O)CSC[C@@H](NC(=O)[C@H](CCC(=O)O)NC(=O)[C@H](Cc4c[nH]cn4)NC3=O)C(=O)N[C@@H](Cc3ccc(O)cc3)C(=O)N[C@@H](Cc3ccc(O)cc3)C(=O)N[C@@H](CC(N)=O)C(=O)N2)NC(=O)CNC(=O)[C@H](CO)NC(=O)[C@H](C)NC(=O)[C@@H]2CCCN2C1=O,Activity,Lactococcus lactis [1],inactive
same,Activity,Bacillus cereus [2],inactive
same,Activity,Staphylococcus aureus [3],inactive
C=C1NC(=O)[C@H](C(C)C)NC(=O)[C@@H]2CSC[C@@H](C(=O)N[C@@H](CCCCN)C(=O)O)NC(=O)[C@H](CSC[C@H]3NC(=O)[C@H](Cc4ccccc4)NC(=O)[C@@H](NC(=O)[C@@H](NC(=O)[C@@H](NC(=O)[C@@H](NC(=O)CNC(=O)CNC(=O)CN)C(C)C)[C@@H](C)CC)[C@@H](C)O)CSC[C@H](NC(=O)[C@H](CCC(=O)O)NC(=O)[C@H](Cc4c[nH]cn4)NC3=O)C(=O)N[C@@H](Cc3ccc(O)cc3)C(=O)N[C@@H](Cc3ccc(O)cc3)C(=O)N[C@@H](CC(N)=O)C(=O)N2)NC(=O)[C@H]([C@@H](C)O)NC(=O)CNC(=O)[C@H](Cc2c[nH]c3ccccc23)NC(=O)[C@H](CO)NC(=O)[C@H](C)NC(=O)[C@@H]2CCCN2C1=O,Activity,Lactococcus lactis [1],inactive
same,Activity,Bacillus cereus [2],inactive
same,Activity,Staphylococcus aureus [3],inactive
C=C(NC(=O)[C@@H](NC(=O)[C@H](Cc1c[nH]cn1)NC(=O)[C@@H](NC(=O)[C@H](CO)NC(=O)[C@@H]1CS[C@@H](C)[C@H]2NC(=O)C(=C)NC(=O)[C@H](NC(=O)[C@H](CCCCN)NC(=O)[C@H](CCSC)NC(=O)[C@H](CC(N)=O)NC(=O)[C@@H]3CS[C@@H](C)[C@@H](NC(=O)[C@H](CCCNN)NC(=O)[C@@H]4CS[C@@H](C)[C@@H](NC(=O)[C@@H]5CSC[C@@H](NC(=O)/C(=C\C)NC(=O)[C@@H](N)[C@@H](C)CC)C(=O)N[C@@H]([C@@H](C)CC)C(=O)NC(=C)C(=O)N[C@@H]([C@@H](C)CC)C(=O)N5)C(=O)N5CCC[C@H]5C(=O)NCC(=O)N4)C(=O)NCC(=O)N[C@@H](C)C(=O)N[C@@H]([C@@H](C)CC)C(=O)N[C@@H](CCSC)C(=O)NCC(=O)N3)[C@H](C)SC[C@H](NC2=O)C(=O)N[C@@H](Cc2c[nH]cn2)C(=O)N1)[C@@H](C)CC)C(C)C)C(=O)N[C@@H](CCCCN)C(=O)O,MIC,Bacillus cereus [4],4 µg/mL
same,MIC,Staphylococcus aureus [5],4 µg/mL
same,MIC,Enterococcus faecium,4 µg/mL
same,MIC,Lactococcus lactis [6],0.016 µg/mL
same,Activity,Cell membrane,Active
same,Activity,Lactococcus lactis [7],Active
same,MIC,Clostridium botulinum,4 µg/mL
same,Activity,Lactococcus lactis [8],Active; Rapid Cell Death Observed
same,MIC,Enterococcus faecalis,4 µg/mL
same,Activity,Lactococcus lactis [9],Active
same,MIC,Clostridium tetani,4 µg/mL
same,Activity,Lactococcus lactis [10],Active
same,MIC,Listeria monocytogenes,8 µg/mL
same,MIC,Clostridium perfringens,1 µg/mL
same,MIC,Staphylococcus aureus [11],16 µg/mL
same,Activity,Lactococcus lactis [12],Active
C=C1NC(=O)[C@H](C(C)C)NC(=O)[C@@H]2CSC[C@@H](C(=O)N[C@@H](CCCCN)C(=O)O)NC(=O)[C@H](CSC[C@@H]3NC(=O)[C@H](Cc4ccccc4)NC(=O)[C@@H](NC(=O)[C@@H](NC(=O)[C@@H](NC(=O)[C@@H](NC(=O)CNC(=O)[C@H](CC(N)=O)NC(=O)CN)C(C)C)[C@@H](C)CC)[C@@H](C)O)CSC[C@H](NC(=O)[C@H](CCC(=O)O)NC(=O)[C@H](Cc4c[nH]cn4)NC3=O)C(=O)N[C@@H](Cc3ccc(O)cc3)C(=O)N[C@@H](Cc3ccc(O)cc3)C(=O)N[C@@H](CC(N)=O)C(=O)N2)NC(=O)CNC(=O)CNC(=O)[C@H](Cc2c[nH]c3ccccc23)NC(=O)[C@H](CO)NC(=O)[C@H](C)NC(=O)[C@@H]2CCCN2C1=O,Activity,Lactococcus lactis [13],20%
same,Activity,Staphylococcus aureus [3],100%
same,Activity,Bacillus cereus [14],20%
C=C1NC(=O)[C@H](C(C)C)NC(=O)[C@@H]2CSC[C@@H](C(=O)N[C@@H](CCCCN)C(=O)O)NC(=O)[C@H](CSC[C@@H]3NC(=O)[C@H](Cc4ccccc4)NC(=O)[C@@H](NC(=O)[C@@H](NC(=O)[C@@H](NC(=O)[C@@H](NC(=O)CNC(=O)CNC(=O)CN)C(C)C)[C@@H](C)CC)[C@@H](C)O)CSC[C@H](NC(=O)[C@H](CCC(=O)O)NC(=O)[C@H](Cc4c[nH]cn4)NC3=O)C(=O)N[C@@H](Cc3ccc(O)cc3)C(=O)N[C@@H](Cc3ccc(O)cc3)C(=O)N[C@@H](CC(N)=O)C(=O)N2)NC(=O)CNC(=O)CNC(=O)[C@H](Cc2c[nH]c3ccccc23)NC(=O)[C@H](CO)NC(=O)[C@H](C)NC(=O)[C@@H]2CCCN2C1=O,MIC,Bacillus cereus [4],8 µg/mL
same,MIC,Staphylococcus aureus [5],4 µg/mL
same,Activity,Lactococcus lactis [1],100%
same,MIC,Enterococcus faecium,64 µg/mL
same,MIC,Lactococcus lactis [6],4 µg/mL
same,Activity,Lactococcus lactis [15],Active
same,Activity,Bacillus cereus [2],100%
same,Activity,Staphylococcus aureus [3],100%
same,Activity,Lactococcus lactis [16],Not active; Less Than 30% Reduction In Activity Observed Relative To Control
same,Activity,Cell membrane,Not active; Only Green Fluorescence Observed
same,Activity,Lactococcus lactis [7],Active
same,Activity,Lactococcus lactis [17],inactive
same,MIC,Clostridium botulinum,32 µg/mL
same,Activity,Lactococcus lactis [8],Not active; Slower Rate Of Killing Observed
same,MIC,Enterococcus faecalis,64 µg/mL
same,Activity,Lactococcus lactis [9],Active
same,MIC,Clostridium tetani,4 µg/mL
same,Activity,Lactococcus lactis [10],Active
same,Activity,Lactococcus lactis [18],inactive
same,Activity,Lactococcus lactis [19],Active; More Resistant Compared To Nisin
same,MIC,Listeria monocytogenes,> 64 µg/mL
same,MIC,Clostridium perfringens,1 µg/mL
same,MIC,Staphylococcus aureus [11],16 µg/mL
same,Activity,Lactococcus lactis [12],Active
